Laboratory results as given in PubChem BioAssay AID256 (DTP/NCI, 2004).
Values joined by “and” are separate entries in the source; they are usually repeats but may differ in a detail not shown here. Equal values may be shown once. Inconclusive results and toxic doses are left out. The calls were made as follows: active = survival T/C of 150% or more; inactive = T/C below 125% in these data.

System: CD2F1 mice, L1210 leukemia ip, survival T/C
Experiment: NCI In Vivo Anticancer Drug Screen. Data for tumor model L1210 Leukemia (intraperitoneal) in CD2F1 (CDF1) mice
Details: higher = longer survival
In short: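 Implant tumor; dose compound or vehicle; measure endpoint in both groups; report treated divided by control.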

[1] = endpoint: mean survival time, dose: 100.0 mg/kg/injection, schedule: Q01DX001 (ip), vehicle: saline with Tween-80
[2] = endpoint: mean survival time, dose: 200.0 mg/kg/injection, schedule: Q01DX001 (ip), vehicle: saline with Tween-80
[3] = endpoint: mean survival time, dose: 100.0 mg/kg/injection, schedule: Q01DX009 (ip), vehicle: saline with Tween-80
[4] = endpoint: mean survival time, dose: 100.0 mg/kg/injection, schedule: Q04DX003 (ip), vehicle: saline with Tween-80
[5] = endpoint: mean survival time, dose: 200.0 mg/kg/injection, schedule: Q01DX009 (ip), vehicle: saline with Tween-80
[6] = endpoint: mean survival time, dose: 200.0 mg/kg/injection, schedule: Q04DX003 (ip), vehicle: saline with Tween-80
[7] = endpoint: mean survival time, dose: 400.0 mg/kg/injection, schedule: Q01DX009 (ip), vehicle: saline with Tween-80
[8] = endpoint: mean survival time, dose: 400.0 mg/kg/injection, schedule: Q04DX003 (ip), vehicle: saline with Tween-80
[9] = endpoint: mean survival time, dose: 50.0 mg/kg/injection, schedule: Q01DX009 (ip), vehicle: saline with Tween-80

Measured: T/C

CC1CCc2c(nc(C#N)c(=N)n2O)C1 (stereo not given)
inactive: endpoint: mean survival time, dose: 100.0 mg/kg/injection, schedule: Q04DX003 (ip), vehicle: Klucel (hydroxypropylcellulose) (HPC) 102 % of control | endpoint: mean survival time, dose: 200.0 mg/kg/injection, schedule: Q04DX003 (ip), vehicle: Klucel (hydroxypropylcellulose) (HPC) 106 % of control | endpoint: mean survival time, dose: 400.0 mg/kg/injection, schedule: Q04DX003 (ip), vehicle: Klucel (hydroxypropylcellulose) (HPC) 98 % of control

O=[N+]([O-])c1ccccc1NS(=O)(=O)c1ccccc1
inactive: [1] 100 % of control | [2] 102 % of control | endpoint: mean survival time, dose: 400.0 mg/kg/injection, schedule: Q01DX001 (ip), vehicle: saline with Tween-80 107 % of control

CCCCCC(O)C1C(=O)OC(C)C(O)/C=C/C=C/C=C/C=C\C=C(\C)C(O)CC(O)CC(O)CC(O)CC(O)CC(O)CC1O (stereo not given)
inactive: endpoint: median survival time, dose: 3.12 mg/kg/injection, schedule: Q01DX009 (ip), vehicle: distilled water + alcohol 104 % of control | endpoint: median survival time, dose: 6.25 mg/kg/injection, schedule: Q01DX009 (ip), vehicle: distilled water + alcohol 104 % of control | endpoint: median survival time, dose: 12.5 mg/kg/injection, schedule: Q01DX009 (ip), vehicle: distilled water + alcohol 104 % of control | endpoint: median survival time, dose: 25.0 mg/kg/injection, schedule: Q01DX009 (ip), vehicle: distilled water + alcohol 100 % of control

O=S1(=O)CC2(C1)CS(=O)(=O)C2
inactive: [1] 103 % of control | [2] 90 % of control

COc1ccc(C(=O)c2ccc(OC)cc2)cc1
inactive: endpoint: mean survival time, dose: 50.0 mg/kg/injection, schedule: Q01DX009 (ip), vehicle: Klucel (hydroxypropylcellulose) (HPC) 100 % of control | endpoint: mean survival time, dose: 100.0 mg/kg/injection, schedule: Q01DX009 (ip), vehicle: Klucel (hydroxypropylcellulose) (HPC) 93 % of control | endpoint: mean survival time, dose: 200.0 mg/kg/injection, schedule: Q01DX009 (ip), vehicle: Klucel (hydroxypropylcellulose) (HPC) 86 % of control

Cc1ccc([Si](OO[Si](c2ccccc2)(c2ccccc2)c2ccc(C)cc2)(c2ccccc2)c2ccccc2)cc1
inactive: [3] 98 % of control | [4] 98 % of control | [5] 93 % of control | [6] 100 % of control | [7] 95 % of control | [8] 98 % of control

C[Si](C)(C)O/C=C1\CCCCC1=O
inactive: endpoint: mean survival time, dose: 6.25 mg/kg/injection, schedule: Q01DX009 (ip), vehicle: saline with Tween-80 98 % of control and 100 % of control | endpoint: mean survival time, dose: 12.5 mg/kg/injection, schedule: Q01DX009 (ip), vehicle: saline with Tween-80 96 % of control and 98 % of control | endpoint: mean survival time, dose: 25.0 mg/kg/injection, schedule: Q01DX009 (ip), vehicle: saline with Tween-80 91 % of control and 100 % of control | [9] 93 % of control and 100 % of control | [3] 93 % of control and 102 % of control | [5] 105 % of control

Oc1ccc2cc3ccccc3cc2c1
inactive: endpoint: mean survival time, dose: 25.0 mg/kg/injection, schedule: Q01DX001 (ip), vehicle: DMSO 104 % of control | endpoint: mean survival time, dose: 50.0 mg/kg/injection, schedule: Q01DX001 (ip), vehicle: DMSO 93 % of control | endpoint: mean survival time, dose: 100.0 mg/kg/injection, schedule: Q01DX001 (ip), vehicle: DMSO 87 % of control and 93 % of control

C=C(C)C(=NC(C)(C)C)Nc1ccccc1
inactive: endpoint: median survival time, dose: 6.25 mg/kg/injection, schedule: Q01DX009 (ip), vehicle: saline with Tween-80 105 % of control | endpoint: median survival time, dose: 12.5 mg/kg/injection, schedule: Q01DX009 (ip), vehicle: saline with Tween-80 110 % of control | endpoint: median survival time, dose: 25.0 mg/kg/injection, schedule: Q01DX009 (ip), vehicle: saline with Tween-80 108 % of control | endpoint: median survival time, dose: 50.0 mg/kg/injection, schedule: Q01DX009 (ip), vehicle: saline with Tween-80 108 % of control | endpoint: median survival time, dose: 100.0 mg/kg/injection, schedule: Q01DX009 (ip), vehicle: saline with Tween-80 112 % of control | endpoint: median survival time, dose: 200.0 mg/kg/injection, schedule: Q01DX009 (ip), vehicle: saline with Tween-80 121 % of control

CC1(C)N=C(N)N=C(N)N1c1cccc(CC(=O)Nc2ccc(S(=O)(=O)F)cc2)c1
inactive: endpoint: mean survival time, dose: 50.0 mg/kg/injection, schedule: Q01DX009 (ip), vehicle: saline 120 % of control | endpoint: mean survival time, dose: 100.0 mg/kg/injection, schedule: Q01DX009 (ip), vehicle: saline 117 % of control | endpoint: mean survival time, dose: 300.0 mg/kg/injection, schedule: Q01DX009 (ip), vehicle: saline 120 % of control

OCc1ccc(Cl)cc1
inactive: [4] 96 % of control | [6] 97 % of control | [8] 100 % of control

CCCCCCCCCCCCS
inactive: endpoint: mean survival time, dose: 25.0 mg/kg/injection, schedule: Q04DX003 (ip), vehicle: saline with Tween-80 101 % of control | endpoint: mean survival time, dose: 50.0 mg/kg/injection, schedule: Q04DX003 (ip), vehicle: saline with Tween-80 97 % of control | [4] 100 % of control and 108 % of control | [6] 91 % of control | [8] 91 % of control

O=C(Nc1ccc(F)cc1)Nc1cccc2ccccc12
inactive: [4] 96 % of control | [6] 96 % of control | [8] 111 % of control

C(CC1CO1)C1CO1 (stereo not given)
inactive: endpoint: mean survival time, dose: 2.5 mg/kg/injection, schedule: Q01DX009 (ip), vehicle: Klucel (hydroxypropylcellulose) (HPC) 98 % of control and 104 % of control | endpoint: mean survival time, dose: 5.0 mg/kg/injection, schedule: Q01DX009 (ip), vehicle: Klucel (hydroxypropylcellulose) (HPC) 98 % of control and 104 % of control | endpoint: mean survival time, dose: 10.0 mg/kg/injection, schedule: Q01DX009 (ip), vehicle: Klucel (hydroxypropylcellulose) (HPC) 92 % of control and 96 % of control | endpoint: mean survival time, dose: 20.0 mg/kg/injection, schedule: Q01DX009 (ip), vehicle: Klucel (hydroxypropylcellulose) (HPC) 98 % of control and 104 % of control | endpoint: mean survival time, dose: 40.0 mg/kg/injection, schedule: Q01DX009 (ip), vehicle: Klucel (hydroxypropylcellulose) (HPC) 95 % of control and 98 % of control | endpoint: mean survival time, dose: 49.5 mg/kg/injection, schedule: Q01DX009 (ip), vehicle: Klucel (hydroxypropylcellulose) (HPC) 122 % of control | endpoint: mean survival time, dose: 80.0 mg/kg/injection, schedule: Q01DX009 (ip), vehicle: Klucel (hydroxypropylcellulose) (HPC) 96 % of control and 98 % of control

CC(CN)OS(=O)(=O)O (stereo not given)
inactive: [9] 100 % of control | endpoint: mean survival time, dose: 50.0 mg/kg/injection, schedule: Q04DX003 (ip), vehicle: saline 103 % of control | [3] 105 % of control | endpoint: mean survival time, dose: 100.0 mg/kg/injection, schedule: Q04DX003 (ip), vehicle: saline 106 % of control | [5] 101 % of control | endpoint: mean survival time, dose: 200.0 mg/kg/injection, schedule: Q04DX003 (ip), vehicle: saline 97 % of control | [7] 101 % of control | endpoint: mean survival time, dose: 400.0 mg/kg/injection, schedule: Q04DX003 (ip), vehicle: saline 105 % of control

CNC(=S)SC1=NS(=O)(=O)c2ccccc2N1
inactive: endpoint: median survival time, dose: 25.0 mg/kg/injection, schedule: Q01DX005 (ip), vehicle: Klucel (hydroxypropylcellulose) (HPC) 106 % of control | endpoint: median survival time, dose: 50.0 mg/kg/injection, schedule: Q01DX005 (ip), vehicle: Klucel (hydroxypropylcellulose) (HPC) 101 % of control | endpoint: median survival time, dose: 100.0 mg/kg/injection, schedule: Q01DX005 (ip), vehicle: Klucel (hydroxypropylcellulose) (HPC) 108 % of control | endpoint: median survival time, dose: 144.0 mg/kg/injection, schedule: Q01DX005 (ip), vehicle: Klucel (hydroxypropylcellulose) (HPC) 113 % of control | endpoint: median survival time, dose: 200.0 mg/kg/injection, schedule: Q01DX005 (ip), vehicle: Klucel (hydroxypropylcellulose) (HPC) 118 % of control
